In patent publication US8998396B2, “Treatment liquid for liquid jetting device, and cartridge containing the same” (Ricoh Company, Ltd., priority 2009, dated 2015):

Assay: Surfactant solubility in the main solvent, judged visually
Assay type: physicochemical
Details: main solvent: water, glycerin and 1,3-butylene glycol
Excerpt: The surfactant was solved into the main solvent and the solubility thereof was judged visually.
A: Solved completely (transparent and colorless)

Structure (SMILES)	Solubility in the main solvent (in words)
CCCCCCCCN1CCCC1=O [LP-100, N-Octyl-2-Pyrrolidone]	solves in the main solvent
CCCCCCCCCCCCN1CCCC1=O [LP-300, N-Dodecyl-2-Pyrrolidone]	cannot solve in the main solvent
